The text below walks through data of ChEMBL document CHEMBL2046420, “Edible Myrciaria vexator fruits: bioactive phenolics for potential COPD therapy” (Bioorg Med Chem, 2012).

Activity calls are given as the source filed them. No cut-off for these calls is given here.

Data set [1] can be described thus: Inhibition of CPE-induced MMP1 mRNA expression in human SAE cells after 24 hrs by quantitative RT-PCR analysis relative to control. In kind it is functional.
The nature of data set [2]: Cytotoxicity against human SAE cells at 1 to 10 ug/ml. In kind it is cell-based.
The subject of data set [3] is SAE. Put plainly: Inhibition of MMP1 mRNA expression in human SAE cells at 1 to 10 ug/ml after 24 hrs by quantitative RT-PCR analysis. In kind it is functional, cell-based.
In data set [4] the test system is SAE. The experiment in a line: Inhibition of CPE-induced MMP1 mRNA expression in human SAE cells after 24 hrs by quantitative RT-PCR analysis. In kind it is functional, cell-based.

For `O=c1oc2c(O)c(O)cc3c(=O)oc4c(O)c(O)cc1c4c23` [ELLAGIC ACID], the “fold change (FC)” value in data set [1] was found to be 6. The Activity entry in data set [2] is reported as “Non-toxic”. For the same molecule, in the data set with SAE [3], the inhibition entry is “Active”. Besides, the inhibition entry in the data set on SAE [4] was “Dose-dependent effect”.
